Values after ≈ are worked out from the molar mass of the structure shown.
Experiments:
[1] = system: Radical scavenging activity; assay: Antioxidant activity assessed as DPPH free radical scavenging activity after 30 min; type: functional
[2] = system: Radical scavenging activity; assay: Antioxidant activity assessed as DPPH free radical scavenging activity at 200 ug/ml after 30 min relative to control; type: functional
[3] = system: Radical scavenging activity; assay: Antioxidant activity assessed as DPPH free radical scavenging activity at 100 ug/ml after 30 min relative to control; type: functional
[4] = system: Radical scavenging activity; assay: Antioxidant activity assessed as DPPH free radical scavenging activity at 150 ug/ml after 30 min relative to control; type: functional
Rattus norvegicus [5] = assay: Neurotoxicity in Rattus norvegicus Wistar (rat) assessed as minimal motor impairment at 100 mg/kg, po after 2 hr by rotorod test relative to control; type: toxicity, organism-based; set-up: dose 100 mg/kg, route oral; settings: in vivo
Rattus norvegicus [6] = assay: Neurotoxicity in Rattus norvegicus Wistar (rat) assessed as minimal motor impairment at 100 mg/kg, po after 0.5 hr by rotorod test; type: toxicity, organism-based; set-up: dose 100 mg/kg, route oral; settings: in vivo
Rattus norvegicus [7] = assay: Neurotoxicity in Rattus norvegicus Wistar (rat) assessed as minimal motor impairment at 100 mg/kg, po after 1 hr by rotorod test; type: toxicity, organism-based; set-up: dose 100 mg/kg, route oral; settings: in vivo
Rattus norvegicus [8] = assay: Anticonvulsant activity in Rattus norvegicus Wistar (rat) assessed as protection against maximal electroshock-induced seizure at 100 mg/kg, po administered 30 min before electroshock measured for 2 min relative to control; type: functional
Rattus norvegicus [9] = assay: Neurotoxicity in Rattus norvegicus Wistar (rat) assessed as minimal motor impairment at 100 mg/kg, po after 2 hr by rotorod test; type: toxicity, organism-based; set-up: dose 100 mg/kg, route oral; settings: in vivo
Rattus norvegicus [10] = assay: Neurotoxicity in Rattus norvegicus Wistar (rat) assessed as minimal motor impairment at 100 mg/kg, po after 4 hr by rotorod test; type: toxicity, organism-based; set-up: dose 100 mg/kg, route oral; settings: in vivo

| Compound | IC50 [1] | Activity [2] | Activity [3] | Activity [4] | Activity (Rattus norvegicus [5]) | Activity (Rattus norvegicus [6]) | Activity (Rattus norvegicus [7]) | Activity (Rattus norvegicus [8]) | Activity (Rattus norvegicus [9]) | Activity (Rattus norvegicus [10]) |
| --- | --- | --- | --- | --- | --- | --- | --- | --- | --- | --- |
| C/C=N/CC1(CC(=O)O)CCCCC1 | Not Active | 49.5% | 31.4% | 41% | – | – | – | – | – | – |
| O=C(O)CC1(C/N=C/c2ccccc2O)CCCCC1 | 80.5 µg/mL (≈ 292 µM) | 71.3% | 51% | 60.6% | – | – | – | – | – | – |
| C=NCC1(CC(=O)O)CCCCC1 | Not Active | 48.9% | 30.2% | 40.6% | – | – | – | – | – | – |
| O=C(O)CC1(C/N=C/c2ccc(F)cc2)CCCCC1 | 130.5 µg/mL (≈ 471 µM) | 62.8% | 44.7% | 53.8% | – | – | – | – | – | – |
| O=C1O[C@H]([C@@H](O)CO)C(O)=C1O [ASCORBIC ACID] | 8.6 µg/mL (≈ 48.8 µM) | 99.3% | 74.1% | 86.4% | – | – | – | – | – | – |
| C/C(=N\CC1(CC(=O)O)CCCCC1)c1cccc(C#N)c1 | Not Active | 49.8% | 30.6% | 41% | 25% | Non-toxic | Non-toxic | 6.36% | – | – |
| O=C1NC(=O)C(c2ccccc2)(c2ccccc2)N1 [PHENYTOIN] | – | – | – | – | – | Non-toxic | – | 79.29% | – | – |
| CCOc1ccc(/C(C)=N/CC2(CC(=O)O)CCCCC2)cc1 | 60.3 µg/mL (≈ 190 µM) | 74.6% | 55.8% | 66.7% | 25% | Non-toxic | Non-toxic | 12.74% | – | – |
| C/C(=N\CC1(CC(=O)O)CCCCC1)c1ccc2ccccc2c1 | Not Active | 48.4% | 28.5% | 37.2% | 25% | Non-toxic | Non-toxic | 0.42% | – | – |
| CCOc1ccc(/C=N/CC2(CC(=O)O)CCCCC2)cc1 | 60.5 µg/mL (≈ 199 µM) | 74.5% | 55.6% | 66.4% | – | – | – | – | – | – |
| O=C(O)CC1(C/N=C/c2ccccc2)CCCCC1 | Not Active | 49.8% | 30.1% | 41.3% | – | – | – | – | – | – |
| COc1ccc(/C=N/CC2(CC(=O)O)CCCCC2)cc1 | 94.2 µg/mL (≈ 326 µM) | 69.5% | 49.6% | 59.8% | – | – | – | – | – | – |
| COc1cc(/C=N/CC2(CC(=O)O)CCCCC2)ccc1O | 59.6 µg/mL (≈ 195 µM) | 78.2% | 57.2% | 64.9% | – | – | – | – | – | – |
| C/C(=N\CC1(CC(=O)O)CCCCC1)c1c[nH]c2ccccc12 | 175 µg/mL (≈ 560 µM) | 55.8% | 32.7% | 43.8% | 25% | Non-toxic | Non-toxic | 24.63% | Non-toxic | – |
| O=C(O)CC1(C/N=C/c2ccccn2)CCCCC1 | 151.2 µg/mL (≈ 581 µM) | 59.7% | 40% | 50.3% | – | – | – | – | – | – |
| C/C(=N\CC1(CC(=O)O)CCCCC1)c1ccccn1 | 194.8 µg/mL (≈ 710 µM) | 51.6% | 31.1% | 42.5% | – | Non-toxic | Non-toxic | 66.45% | Non-toxic | Non-toxic |
| C/C(=N\CC1(CC(=O)O)CCCCC1)c1cccnc1 | 198.2 µg/mL (≈ 722 µM) | 51% | 30.8% | 42.1% | – | Non-toxic | Non-toxic | 65.61% | Non-toxic | Non-toxic |
| O=C(O)CC1(C/N=C/c2ccccc2Cl)CCCCC1 | 119.4 µg/mL (≈ 406 µM) | 66.4% | 45.1% | 56.7% | – | – | – | – | – | – |
| O=C(O)CC1(C/N=C/c2c(F)cccc2Cl)CCCCC1 | 104 µg/mL (≈ 334 µM) | 69.1% | 47.2% | 58% | – | – | – | – | – | – |
